Earlier results as cited in patent publication US20090023693A1, “NEW DROSPIRENONE/17BETA-ESTRADIOL REGIMEN, PHARMACEUTICAL COMBINATION PRODUCT AND KIT FOR PERFORMING THIS REGIMEN” (priority 2007, published 2009).

How the values were obtained:
[1] = oral vs transdermal
[2] = molecular target: T1, mineralocorticoid receptor (Homo sapiens, UniProt P08235); conditions: compared with aldosterone
T1 sequence (P08235 1-984): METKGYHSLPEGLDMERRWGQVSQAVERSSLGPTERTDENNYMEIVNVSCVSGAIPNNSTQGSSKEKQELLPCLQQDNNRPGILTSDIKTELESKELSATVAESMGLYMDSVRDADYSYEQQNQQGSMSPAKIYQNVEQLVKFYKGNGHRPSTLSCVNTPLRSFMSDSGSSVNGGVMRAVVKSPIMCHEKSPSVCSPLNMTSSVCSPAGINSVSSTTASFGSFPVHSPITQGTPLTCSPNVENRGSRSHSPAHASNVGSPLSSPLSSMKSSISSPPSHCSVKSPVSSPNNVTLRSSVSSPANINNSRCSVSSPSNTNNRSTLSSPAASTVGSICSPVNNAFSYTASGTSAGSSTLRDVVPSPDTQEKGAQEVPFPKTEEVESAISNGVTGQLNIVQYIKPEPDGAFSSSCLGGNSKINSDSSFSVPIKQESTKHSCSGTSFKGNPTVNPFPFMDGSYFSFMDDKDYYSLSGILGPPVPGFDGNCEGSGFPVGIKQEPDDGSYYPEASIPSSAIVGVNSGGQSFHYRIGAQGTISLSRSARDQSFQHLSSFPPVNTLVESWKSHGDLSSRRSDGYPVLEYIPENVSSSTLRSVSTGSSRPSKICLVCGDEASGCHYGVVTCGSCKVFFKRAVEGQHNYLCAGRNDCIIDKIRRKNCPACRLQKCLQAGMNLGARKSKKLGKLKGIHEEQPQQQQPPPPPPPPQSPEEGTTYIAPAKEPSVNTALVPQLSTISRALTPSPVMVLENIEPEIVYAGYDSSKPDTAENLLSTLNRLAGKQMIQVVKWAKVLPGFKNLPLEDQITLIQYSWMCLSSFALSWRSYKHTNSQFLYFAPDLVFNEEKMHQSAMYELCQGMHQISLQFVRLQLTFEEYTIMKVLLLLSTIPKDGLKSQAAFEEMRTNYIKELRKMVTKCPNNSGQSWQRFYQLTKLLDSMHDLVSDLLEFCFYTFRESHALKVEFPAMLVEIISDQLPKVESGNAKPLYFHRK

bioavailabilities after oral and transdermal administration [1]: roughly the same
affinity for the mineralocorticoid receptor relative to aldosterone [2]: about five times that of aldosterone
SMILES: C[C@]12CCC(=O)C=C1[C@@H]1C[C@@H]1[C@H]1[C@@H]3[C@@H]4C[C@@H]4[C@@]4(CCC(=O)O4)[C@@]3(C)CC[C@@H]12 [drospirenone, Drospirenone]
blood pressure (hypertensive women): lowered
salt and water retention (in vivo): reduced
